# Test results reported in patent US11673867B2, “Sulfonamide derivative or pharmaceutically acceptable acid-addition salt” (University of Tsukuba, priority 2017, dated 2023).
# System: C57BL/6J lineage wild-type (WT) mice
# Assay: Awakening effect of oral administration (light period) to wild-type mice (EEG/EMG)
# Type: in vivo, mouse
# Conditions: ZT6 light period, 0.625 mg/kg-25 mg/kg, versus control MC, 60, 120, 180 min after administration, n=3
# Text: Awakening Effect of Oral Administration (Light Period) of Test Compound to Wild-Type Mice
# As the test compound, the compound of Example 1 was used.
# C57BL/6J lineage wild-type (WT) mice, and orexin receptor-deficient mice (DKO mice) (both males) as a negative control were used as experimental animals. The mice (9 to 35 weeks of age) underwent surgery for embedding electroencephalogram electrodes into the skull (Bregma: X=1.5; Y=0.6, Lambda: X=1.5; Y=0) and inserting electromyogram electrodes into the trapezius muscle under isoflurane anesthesia. Two weeks postoperation were the recovery period and acclimation period to the electroencephalogram/electromyogram measurement cage, after which administration and measurement were performed. To prepare a suspension for oral administration of the test compound, the compound was grinded in an agate mortar for 20 min and sufficiently stirred while adding a small amount of 0.5% methylcellulose aqueous solution (MC). The suspension (100 μL) was dispensed into an oral gavage needle. […]
# To the WT mice were orally administered 100 μL each of the control MC or the test compound during the light period (ZT6) in the sleep period. […] DKO mice were also evaluated by a similar method, in which MC or a test compound (5 mg/kg) was orally administered, and electroencephalogram and electromyogram were measured for 3 hr after the administration. […]
row,Compound,awakening time (awakening prolonging effect)
1,"CCCc1ccc(N2CCCN(c3cccc(NS(=O)(=O)c4cc(-c5cccc(C(=O)N(C)C)c5)ccc4OC)c3)C2=O)cc1 [Example 1, 4′-methoxy-N,N-dimethyl-3′-(N-(3-(2-oxo-3-(4-propylphenyl)tetrahydropyrimidin-1(2H)-yl)phenyl)sulfamoyl)-[1,1′-biphenyl]-3-carboxamide]",significantly prolonged the awakening time and increased the awakening time in a dose-dependent manner

# Target: T1, human OX2R (Homo sapiens, UniProt O43614)
# T1 construct: expressed in transfected cells; host or cells: CHO (Chinese hamster ovary) cells, line CHOOX2R, also expressing NFAT-luciferase
# T1 sequence (O43614 1-444): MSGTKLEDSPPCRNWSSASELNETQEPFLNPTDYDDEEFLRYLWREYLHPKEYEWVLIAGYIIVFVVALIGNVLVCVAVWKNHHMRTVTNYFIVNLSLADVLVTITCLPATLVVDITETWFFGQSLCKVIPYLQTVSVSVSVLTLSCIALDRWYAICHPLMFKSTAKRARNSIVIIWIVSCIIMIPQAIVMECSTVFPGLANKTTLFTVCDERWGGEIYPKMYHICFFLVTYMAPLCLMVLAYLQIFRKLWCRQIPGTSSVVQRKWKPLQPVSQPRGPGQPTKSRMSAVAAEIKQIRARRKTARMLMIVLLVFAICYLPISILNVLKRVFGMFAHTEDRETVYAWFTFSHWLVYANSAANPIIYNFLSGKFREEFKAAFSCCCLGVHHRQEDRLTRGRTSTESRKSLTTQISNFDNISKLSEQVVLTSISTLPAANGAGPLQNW
# Assay: Evaluation of agonist activity against OX2R (intracellular calcium, Fura-2AM, FDSS7000, CHOOX2R cells)
# Type: cell-based
# Conditions: CHO cells expressing human OX2R; calcium fluorescence ratio 340/380 nm; 10^-11.5 M to 10^-5 M
# Procedure: Evaluation of Agonist Activity Against OX2R
# NAFT-luciferase gene and human OX2R gene were constitutively expressed in CHO cell, which is a cell line derived from Chinese hamster ovary to establish a cell line (CHOOX2R). The cells were seeded in a 96-well Multiplate at 10,000 cells/well and cultured in a 5% FBS (Thermo Scientific)-added DMEM medium (Sigma-Aldrich) for 48 hr. The medium was removed, an assay buffer (20 mM HEPES (Sigma-Aldrich), Hanks' balanced salt solution (Gibco), 0.1% BSA (Sigma-Aldrich), 2.5 mM probenecid acid (Wako Pure Chemical Industries, Ltd.)) (100 μL) containing 4 μM Fura-2AM (Cayman Chemical) was added, and the cells were incubated for 60 min. The buffer containing Fura-2AM was removed, and an assay buffer (75 μL) was added. An assay buffer (25 μL) containing a test compound was added thereto to start the reaction. Changes in the intracellular calcium ion concentration due to the reaction were measured by measuring the fluorescence intensity ratio by dual wavelength excitation at 340 and 380 nm, by using FDSS7000 (Hamamatsu Photonics K.K.). The test compound was dissolved in DMSO to 10 mM, and diluted with the assay buffer to a final concentration of 10^−11.5 M to 10^−5 M (final concentration of DMSO 1%).
row,Compound,EC50 [nM]
1,COc1ccc(-c2cccc(C(=O)N(C)C)c2)cc1S(=O)(=O)Nc1cccc(N2CCCN(c3ccc(C(C)C)cc3)C2=O)c1 [Example 4],3.3
2,COc1ccc(-c2cccc(C(=O)N(C)C)c2)cc1S(=O)(=O)Nc1cccc(N2CCCN(c3ccc(OCC(F)(F)F)cc3)C2=O)c1 [Example 9],20
3,COc1ccc(-c2cccc(C(=O)N(C)C)c2)cc1S(=O)(=O)Nc1cccc(N2CCCN(c3ccc(OCC(C)C)cc3)C2=O)c1 [Example 10],65.9
4,CCCCCCCCOc1ccc(N2CCCN(c3cccc(NS(=O)(=O)c4cc(-c5cccc(C(=O)N(C)C)c5)ccc4OC)c3)C2=O)cc1 [Example 11],> 500
5,"COc1ccc(-c2cccc(C(=O)N(C)C)c2)cc1S(=O)(=O)Nc1cccc(N2CCCN(c3ccc(Oc4ccccc4)cc3)C2=O)c1 [Example 12, 4′-methoxy-N,N-dimethyl-3′-(N-(3-(2-oxo-3-(4-phenoxyphenyl)tetrahydropyrimidin-1(2H)-yl)phenyl)sulfamoyl)-[1,1′-biphenyl]-3-carboxamide]",217
6,COc1ccc(-c2cccc(C(=O)N(C)C)c2)cc1S(=O)(=O)Nc1cccc(N2CCCN(c3ccc(-c4ccccc4)cc3)C2=O)c1 [Example 14],140
7,CCCCCCCCc1ccc(N2CCCN(c3cccc(NS(=O)(=O)c4cc(-c5cccc(C(=O)N(C)C)c5)ccc4OC)c3)C2=O)cc1 [Example 15],> 500
8,"CCCc1ccc(N2CCCN(c3cccc(NS(=O)(=O)c4cc(C5CNC(=O)C5)ccc4OC)c3)C2=O)cc1 (stereo not shown) [Example 18, 2-methoxy-N-(3-(2-oxo-3-(4-propylphenyl)tetrahydropyrimidin-1(2H)-yl)phenyl)-5-(5-oxopyrrolidin-3-yl)benzenesulfonamide]",6.31
9,COc1ccc(N2CCCN(c3cccc(NS(=O)(=O)c4cc(C(C)C)ccc4OC)c3)C2=O)cc1 [Example 21],81.7

# Second part, the compound after the results:
row,EC50 [nM],Compound
1,0.61,"CCCc1ccc(N2CCCN(c3cccc(NS(=O)(=O)c4cc(-c5cccc(C(=O)N(C)C)c5)ccc4OC)c3)C2=O)cc1 [Example 1, 4′-methoxy-N,N-dimethyl-3′-(N-(3-(2-oxo-3-(4-propylphenyl)tetrahydropyrimidin-1(2H)-yl)phenyl)sulfamoyl)-[1,1′-biphenyl]-3-carboxamide]"
2,5.12,COc1ccc(-c2cccc(C(=O)N(C)C)c2)cc1S(=O)(=O)Nc1cccc(N2CCCN(c3ccc(C)cc3)C2=O)c1 [Example 2]
3,3.1,CCc1ccc(N2CCCN(c3cccc(NS(=O)(=O)c4cc(-c5cccc(C(=O)N(C)C)c5)ccc4OC)c3)C2=O)cc1 [Example 3]
4,2.41,COc1ccc(N2CCCN(c3cccc(NS(=O)(=O)c4cc(-c5cccc(C(=O)N(C)C)c5)ccc4OC)c3)C2=O)cc1 [Example 5]
5,2.87,"CCOc1ccc(N2CCCN(c3cccc(NS(=O)(=O)c4cc(-c5cccc(C(=O)N(C)C)c5)ccc4OC)c3)C2=O)cc1 [Example 6, 3′-(N-(3-(3-(4-ethoxyphenyl)-2-oxotetrahydropyrimidin-1(2H)-yl)phenyl)sulfamoyl)-4′-methoxy-N,N-dimethyl-[1,1′-biphenyl]-3-carboxamide]"
6,7.52,"CCCCc1ccc(N2CCCN(c3cccc(NS(=O)(=O)c4cc(-c5cccc(C(=O)N(C)C)c5)ccc4OC)c3)C2=O)cc1 [Example 13, 3′-(N-(3-(3-(4-butylphenyl)-2-oxotetrahydropyrimidin-1(2H)-yl)phenyl)sulfamoyl)-4′-methoxy-N,N-dimethyl-[1,1′-biphenyl]-3-carboxamide]"
7,0.843,"[2H]C([2H])([2H])Oc1ccc(-c2cccc(C(=O)N(C)C)c2)cc1S(=O)(=O)Nc1cccc(N2CCCN(c3ccc(CCC)cc3)C2=O)c1 [Example 16, 4′-(methoxy-d3)-N,N-dimethyl-3′-(N-(3-(2-oxo-3-(4-propylphenyl)tetrahydropyrimidin-1(2H)-yl)phenyl)sulfamoyl)-[1,1′-biphenyl]-3-carboxamide]"
8,395,"CCCc1ccc(N2CCCN(c3cccc(NS(=O)(=O)c4cc(-c5cccc(C(=O)N(C)C)c5)ccc4OC(F)(F)F)c3)C2=O)cc1 [Example 17, N,N-dimethyl-3′-(N-(3-(2-oxo-3-(4-propylphenyl)tetrahydropyrimidin-1(2H)-yl)phenyl)sulfamoyl)-4′-(trifluoromethoxy)-[1,1′-biphenyl]-3-carboxamide]"
9,19.6,"CCCc1ccc(N2CCCN(c3cccc(NS(=O)(=O)c4cc(C(C)C)ccc4OC)c3)C2=O)cc1 [Example 19, 5-isopropyl-2-methoxy-N-(3-(2-oxo-3-(4-propylphenyl)tetrahydropyrimidin-1(2H)-yl)phenyl)benzenesulfonamide]"
10,41.4,COc1ccc(C(C)C)cc1S(=O)(=O)Nc1cccc(N2CCCN(c3ccc(C(C)C)cc3)C2=O)c1 [Example 20]
11,38.1,CCOc1ccc(N2CCCN(c3cccc(NS(=O)(=O)c4cc(C(C)C)ccc4OC)c3)C2=O)cc1 [Example 22]

# System: orexin receptor-deficient mice (DKO mice)
# Assay: Awakening effect of oral administration to orexin receptor-deficient mice (DKO mice), negative control (EEG/EMG)
# Type: in vivo, mouse
# Conditions: oral 5 mg/kg, versus control MC, measured 3 hr after administration, n=3
# Text: C57BL/6J lineage wild-type (WT) mice, and orexin receptor-deficient mice (DKO mice) (both males) as a negative control were used as experimental animals. The mice (9 to 35 weeks of age) underwent surgery for embedding electroencephalogram electrodes into the skull (Bregma: X=1.5; Y=0.6, Lambda: X=1.5; Y=0) and inserting electromyogram electrodes into the trapezius muscle under isoflurane anesthesia. Two weeks postoperation were the recovery period and acclimation period to the electroencephalogram/electromyogram measurement cage, after which administration and measurement were performed. To prepare a suspension for oral administration of the test compound, the compound was grinded in an agate mortar for 20 min and sufficiently stirred while adding a small amount of 0.5% methylcellulose aqueous solution (MC). The suspension (100 μL) was dispensed into an oral gavage needle. The suspensions were prepared 30 min before administration.
# To the WT mice were orally administered 100 μL each of the control MC or the test compound during the light period (ZT6) in the sleep period. The test compound was administered at concentrations of 0.625 mg/kg-25 mg/kg according to the stage. DKO mice were also evaluated by a similar method, in which MC or a test compound (5 mg/kg) was orally administered, and electroencephalogram and electromyogram were measured for 3 hr after the administration. […]
row,Compound,awakening time (awakening prolonging effect)
1,"CCCc1ccc(N2CCCN(c3cccc(NS(=O)(=O)c4cc(-c5cccc(C(=O)N(C)C)c5)ccc4OC)c3)C2=O)cc1 [Example 1, 4′-methoxy-N,N-dimethyl-3′-(N-(3-(2-oxo-3-(4-propylphenyl)tetrahydropyrimidin-1(2H)-yl)phenyl)sulfamoyl)-[1,1′-biphenyl]-3-carboxamide]",no significant difference in the awakening time
